Measured values taken from US20230140216A1, “COMBINATION THERAPY FOR TREATING MPS1” (GAIN THERAPEUTICS SA, priority 2020, published 2023).

Target: T1, Recombinant human α-L-iduronidase protein (Homo sapiens, UniProt P35475)
T1 construct: purchased R&D
T1 sequence (P35475 28-653): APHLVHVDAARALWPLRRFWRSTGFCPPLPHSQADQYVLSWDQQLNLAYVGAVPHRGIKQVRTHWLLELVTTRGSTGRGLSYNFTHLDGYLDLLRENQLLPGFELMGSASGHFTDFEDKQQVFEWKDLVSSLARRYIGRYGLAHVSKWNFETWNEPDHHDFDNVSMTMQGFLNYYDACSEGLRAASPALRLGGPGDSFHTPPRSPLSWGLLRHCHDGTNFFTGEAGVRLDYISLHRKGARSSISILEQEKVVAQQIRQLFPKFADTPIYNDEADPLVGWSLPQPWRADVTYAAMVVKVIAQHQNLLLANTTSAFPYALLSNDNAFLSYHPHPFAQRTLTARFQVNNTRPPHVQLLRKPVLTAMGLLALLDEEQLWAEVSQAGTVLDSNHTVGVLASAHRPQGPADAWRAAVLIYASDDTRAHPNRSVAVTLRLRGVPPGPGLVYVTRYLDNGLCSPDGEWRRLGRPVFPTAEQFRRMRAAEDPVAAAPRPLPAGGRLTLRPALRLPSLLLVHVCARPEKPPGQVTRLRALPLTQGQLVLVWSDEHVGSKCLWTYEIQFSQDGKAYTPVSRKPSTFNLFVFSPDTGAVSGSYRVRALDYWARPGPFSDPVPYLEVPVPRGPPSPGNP
Test: Differential scanning fluorimetry (DSF) thermal stabilization;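 note: Classes count stabilization of α-L-iduronidase despite the GALC label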
Format: binding
Conditions: ΔTm class
Description: The capacity of Compounds of the Disclosure to stabilize α-L-iduronidase was assessed by differential scanning fluorimetry technique. The thermal denaturation of purified human native enzyme was monitored in the presence of the extrinsic fluorescent probe SYPRO Orange (Sigma-Aldrich, St. Louis, MO). The tested compounds were dissolved in 100% DMSO and diluted into the protein buffer to achieve final concentrations of 1% DMSO.
Recombinant human α-L-iduronidase protein (purchased from R&D) 12.5 µL of 1.5 µM in 100 mM Hepes 20 mM MgCl2 pH 7 (protein final concentration 0.75 µM) with Sypro Orange 10X and 12.5 µl of the different compound solutions were dispensed into 96-well PCR-plates. The intensity of SYPRO Orange fluorescence after a systematic increase of temperature was monitored in the Roche LightCycler® 480 II device (Roche Diagnostics).
The capacity to stabilize α-L-iduronidase is denoted as follows: • ΔTm GALC > 1 is shown as A; • ΔTm GALC between 0.5 and 1 is shown as B; • ΔTm GALC between 0.1 and 0.5 is shown as C; and • ΔTm GALC less than 0.1 is shown as D.

[1] = commercially available Examples 8-37

SMILES	DSF Activity range (synthetized Examples 1-7)	DSF Activity range [1]
CN(CC(=O)N(C)c1ccccc1Cl)Cc1nc(O)c2cnn(-c3ccccc3)c2n1 [Example 1, N-(2-chlorophenyl)-2-(((4-hydroxy-1-phenyl-1H-pyrazolo[3,4-d]pyrimidin-6-yl)methyl)(methyl)amino)-N-methylacetamide]	A (ΔTm GALC > 1 is shown as A)	
Cc1ccccc1-n1ncc2c(O)nc(CN(C)CC(=O)N(C)c3ccccc3Cl)nc21 [Example 2, N-(2-chlorophenyl)-2-(((4-hydroxy-1-o-tolyl-1H-pyrazolo[3,4-d]pyrimidin-6-yl)methyl)(methyl)amino)-N-methylacetamide]	C (ΔTm GALC between 0.1 and 0.5 is shown as C)	
Cc1cccc(-n2ncc3c(O)nc(CN(C)CC(=O)N(C)c4ccccc4Cl)nc32)c1 [Example 3, N-(2-chlorophenyl)-2-(((4-hydroxy-1-m-tolyl-1H-pyrazolo[3,4-d]pyrimidin-6-yl)methyl)(methyl)amino)-N-methylacetamide]	C (ΔTm GALC between 0.1 and 0.5 is shown as C)	
Cc1ccc(-n2ncc3c(O)nc(CN(C)CC(=O)N(C)c4ccccc4Cl)nc32)cc1 [Example 4, N-(2-chlorophenyl)-2-(((4-hydroxy-1-p-tolyl-1H-pyrazolo[3,4-d]pyrimidin-6-yl)methyl)(methyl)amino)-N-methylacetamide]	B (ΔTm GALC between 0.5 and 1 is shown as B)	
COc1ccccc1-n1ncc2c(O)nc(CN(C)CC(=O)N(C)c3ccccc3Cl)nc21 [Example 5, N-(2-chlorophenyl)-2-(((4-hydroxy-1-(2-methoxyphenyl)-1H-pyrazolo[3,4-d]pyrimidin-6-yl)methyl)(methyl)amino)-N-methylacetamide]	D (ΔTm GALC less than 0.1 is shown as D)	
COc1cccc(-n2ncc3c(O)nc(CN(C)CC(=O)N(C)c4ccccc4Cl)nc32)c1 [Example 6, N-(2-chlorophenyl)-2-(((4-hydroxy-1-(3-methoxyphenyl)-1H-pyrazolo[3,4-d]pyrimidin-6-yl)methyl)(methyl)amino)-N-methylacetamide]	B (ΔTm GALC between 0.5 and 1 is shown as B)	
COc1ccc(-n2ncc3c(O)nc(CN(C)CC(=O)N(C)c4ccccc4Cl)nc32)cc1 [Example 7, N-(2-chlorophenyl)-2-(((4-hydroxy-1-(4-methoxyphenyl)-1H-pyrazolo[3,4-d]pyrimidin-6-yl)methyl)(methyl)amino)-N-methylacetamide]	C (ΔTm GALC between 0.1 and 0.5 is shown as C)	
CN(CC(=O)Nc1cccc(F)c1)Cc1nc2ccsc2c(=O)[nH]1 [Example 9, N-(3-fluorophenyl)-2-(methyl((4-oxo-3,4-dihydrothieno[3,2-d]pyrimidin-2-yl)methyl)amino)acetamide]		A (ΔTm GALC > 1 is shown as A)
CCN(CC(=O)Nc1cccc(OC)c1)Cc1nc2ccsc2c(=O)[nH]1 [Example 10, 2-(ethyl((4-oxo-3,4-dihydrothieno[3,2-d]pyrimidin-2-yl)methyl)amino)-N-(3-methoxyphenyl)acetamide]		C (ΔTm GALC between 0.1 and 0.5 is shown as C)
CCCN(CC(=O)Nc1ccc(F)cc1F)Cc1nc2ccsc2c(=O)[nH]1 [Example 11, N-(2,4-difluorophenyl)-2-(((4-oxo-3,4-dihydrothieno[3,2-d]pyrimidin-2-yl)methyl)(propyl)amino)acetamide]		B (ΔTm GALC between 0.5 and 1 is shown as B)
CN(CC(=O)Nc1ccccc1Cl)Cc1nc2ccsc2c(=O)[nH]1 [Example 12, N-(2-chlorophenyl)-2-(methyl((4-oxo-3,4-dihydrothieno[3,2-d]pyrimidin-2-yl)methyl)amino)acetamide]		B (ΔTm GALC between 0.5 and 1 is shown as B)
CCN(CC(=O)NC(C)(C)C)Cc1nc2ccsc2c(=O)[nH]1 [Example 13, N-(tert-butyl)-2-(ethyl((4-oxo-3,4-dihydrothieno[3,2-d]pyrimidin-2-yl)methyl)amino)acetamide]		D (ΔTm GALC less than 0.1 is shown as D)
Cc1csc(NC(=O)CN(C)Cc2nc3ccsc3c(=O)[nH]2)n1 [Example 14, 2-(methyl((4-oxo-3,4-dihydrothieno[3,2-d]pyrimidin-2-yl)methyl)amino)-N-(4-methylthiazol-2-yl)acetamide]		A (ΔTm GALC > 1 is shown as A)
CCCN(CC(=O)N1CCc2ccccc21)Cc1nc2ccsc2c(=O)[nH]1 [Example 15, 2-(((2-(indolin-1-yl)-2-oxoethyl)(propyl)amino)methyl)thieno[3,2-d]pyrimidin-4(3H)-one]		D (ΔTm GALC less than 0.1 is shown as D)
CCN(CC(=O)Nc1c(Cl)cccc1Cl)Cc1nc2ccccc2c(=O)[nH]1 [Example 16, N-(2,6-dichlorophenyl)-2-(ethyl((4-oxo-3,4-dihydroquinazolin-2-yl)methyl)amino)acetamide]		B (ΔTm GALC between 0.5 and 1 is shown as B)
COCCN(CC(=O)Nc1ccc(C)cc1)Cc1nc2ccccc2c(=O)[nH]1 [Example 17, 2-((2-methoxyethyl)((4-oxo-3,4-dihydroquinazolin-2-yl)methyl)amino)-N-(p-tolyl)acetamide]		B (ΔTm GALC between 0.5 and 1 is shown as B)
CN(CC(=O)Nc1cccc2ccccc12)Cc1nc2ccccc2c(=O)[nH]1 [Example 18, 2-(methyl((4-oxo-3,4-dihydroquinazolin-2-yl)methyl)amino)-N-(naphthalen-1-yl)acetamide]		A (ΔTm GALC > 1 is shown as A)
CCN(CC(=O)Nc1ccccc1)Cc1nc2ccccc2c(=O)[nH]1 [Example 19, 2-(ethyl((4-oxo-3,4-dihydroquinazolin-2-yl)methyl)amino)-N-phenylacetamide]		C (ΔTm GALC between 0.1 and 0.5 is shown as C)
CCN(CC(=O)Nc1ccccc1C)Cc1nc2ccccc2c(=O)[nH]1 [Example 20, 2-(ethyl((4-oxo-3,4-dihydroquinazolin-2-yl)methyl)amino)-N-(o-tolyl)acetamide]		B (ΔTm GALC between 0.5 and 1 is shown as B)
CN(CC(=O)Nc1cccc2ncccc12)Cc1nc2ccccc2c(=O)[nH]1 [Example 21, 2-(methyl((4-oxo-3,4-dihydroquinazolin-2-yl)methyl)amino)-N-(quinolin-5-yl)acetamide]		B (ΔTm GALC between 0.5 and 1 is shown as B)
CCN(CC(=O)Nc1ccccc1Cl)Cc1nc2ccccc2c(=O)[nH]1 [Example 22, N-(2-chlorophenyl)-2-(ethyl((4-oxo-3,4-dihydroquinazolin-2-yl)methyl)amino)acetamide]		C (ΔTm GALC between 0.1 and 0.5 is shown as C)
Cc1cccc(C)c1NC(=O)CN(C)Cc1nc2ccccc2c(=O)[nH]1 [Example 23, N-(2,6-dimethylphenyl)-2-(methyl((4-oxo-3,4-dihydroquinazolin-2-yl)methyl)amino)acetamide]		B (ΔTm GALC between 0.5 and 1 is shown as B)
O=C(Nc1ccccc1)C1CCCN1Cc1nc2ccccc2c(=O)[nH]1 (stereo not shown) [Example 24, 1-((4-oxo-3,4-dihydroquinazolin-2-yl)methyl)-N-phenylpyrrolidine-2-carboxamide]		B (ΔTm GALC between 0.5 and 1 is shown as B)
CCN(CC(=O)Nc1cccc2c1N=S=N2)Cc1nc2ccccc2c(=O)[nH]1 [Example 25, N-(benzo[c][1,2,5]thiadiazol-4-yl)-2-(ethyl((4-oxo-3,4-dihydroquinazolin-2-yl)methyl)amino)acetamide]		B (ΔTm GALC between 0.5 and 1 is shown as B)
CCN(CC(=O)NCC(C)C)Cc1nc2ccccc2c(=O)[nH]1 [Example 26, 2-(ethyl((4-oxo-3,4-dihydroquinazolin-2-yl)methyl)amino)-N-isobutylacetamide]		B (ΔTm GALC between 0.5 and 1 is shown as B)
CN(CC(=O)N(C)c1ccccc1)Cc1nc2ccccc2c(=O)[nH]1 [Example 27, N-methyl-2-(methyl((4-oxo-3,4-dihydroquinazolin-2-yl)methyl)amino)-N-phenylacetamide]		B (ΔTm GALC between 0.5 and 1 is shown as B)
CCN(C(=O)CN(C)Cc1nc2ccccc2c(=O)[nH]1)c1cccc2ccccc12 [Example 28, N-ethyl-2-(methyl((4-oxo-3,4-dihydroquinazolin-2-yl)methyl)amino)-N-(naphthalen-1-yl)acetamide]		B (ΔTm GALC between 0.5 and 1 is shown as B)
CN(CC(=O)N1CCCc2ccccc21)Cc1nc2ccccc2c(=O)[nH]1 [Example 29, 2-(((2-(3,4-dihydroquinolin-1(2H)-yl)-2-oxoethyl)(methyl)amino)methyl)quinazolin-4(3H)-one]		B (ΔTm GALC between 0.5 and 1 is shown as B)
